Test results reported in patent US20080146669A1, “Novel Chloride Channel Pore Openers” (THE UAB RESEARCH FOUNDATION, priority 2005, published 2008).
Blank lines part the entries; values can stand above or below the compound they belong to.

Columns and labels:
CFTR-minus cells = experiment: Currents across patches excised from CFTR-minus (untransfected) cells; assay type: biochemical
Description: (§1) Cell culture DNA constructs and transfections. Baby hamster kidney (BHK) cells stably expressing wild type human CFTR (BHK-CFTR) were provided by J. Hanrahan (McGill University). BHK-CFTR cells were cultured in Dulbecco's modified Eagle's medium (DMEM (Mediatech)) supplemented with 5% fetal bovine serum (FBS) and 1 mM penicillin-streptomycin. The growth media for the BHK-CFTR cells also contained 0.5 mM methotrexate to maintain selection for CFTR-expressing cells (22). HEK-293T cells were transiently transfected with wild-type or mutant CFTR cDNA using the Lipofectamine transfection kit following manufacturer's recommendations (Invitrogen, Corp). HEK-293T cells were cultured in DMEM. All cells were grown on plastic coverslips for patch clamp recording and were used 2-3 days post-seeding. Electrophysiology and data analysis. Macroscopic and multi-channel currents were recorded in the excised, inside-out configuration. Patch pipettes were pulled from Corning 8161 glass to tip resistances of […] (macroscopic recordings) or 8-10 mOhm (micropatch studies). CFTR channels were activated following patch excision by exposure of the cytoplasmic face of the patch to catalytic subunit of protein kinase A (PKA; 110 U/ml; Promega) and Mg-ATP (1.5 mM). CFTR currents were recorded in symmetrical solution containing (in mM): 140 N-methyl-D-glucaniine-Cl, 3 MgCl2, 1 EGTA and 10 TES. The pH was adjusted to 7.3. Macroscopic currents were evoked using a ramp protocol from +80 to −80 mV with a 10 sec time period. Patches were held at −80 mV or +80 mV for micropatch (multichannel) recordings. All patch clamp experiments were performed at 21-23° C. Signals from macroscopic and single channel recording were filtered at 20 and 200 Hz, respectively. Data acquisition and analysis were performed using pCLAMP8 and pCLAMP9 software (Axon Instruments). Curve fitting for kinetic analysis was performed using Microcal Origin software. Averaged data are presented as mean +/−SEM. Statistical comparisons were made by performing unpaired t-tests unless otherwise indicated. Ussing Chamber Experiments-CFBE41o epithelial cells stably transfected with ΔF508-CFTR or transiently transfected with wild-type CFTR were cultured as electrically resistive monolayers and assayed in Ussing chambers as described (16). ΔF508-CFTR-expressing monolayers were grown at 27° C. for 2-3 days to enhance the surface expression of this temperature-sensitive mutant. A serosal-to-mucosal Cl^− gradient (120 to 1.2 mM) was imposed, followed by amiloride addition (100 μM) to block Na^+ currents. Compounds were added to both chambers at the indicated concentrations. A 3-mV voltage pulse was imposed every 100 s to monitor transepithelial resistance.

wild-type CFTR = wild-type CFTR (Homo sapiens, UniProt P13569); experiment: Macroscopic currents in excised inside-out patches from BHK-CFTR cells; assay type: biochemical; set-up: expressed in transfected cells; provided by J. Hanrahan (McGill University)
Description: as §1, with “CFTR channels were activated following patch excision by exposure of the cytoplasmic face of the patch to catalytic subunit of protein kinase A (PKA; 110 U/ml; Promega) and Mg-ATP (1.5 mM).” left out

ΔF508-CFTR [1] = target: T1, ΔF508-CFTR (Homo sapiens, UniProt P13569, DEL508-508); experiment: Ussing chamber transepithelial chloride currents, temperature-corrected ΔF508-CFTR CFBE41o- monolayers; assay type: cell-based; details: 1 μM compound with 1 μM forskolin; N=8-12
T1 construct: expressed in transfected cells; host or cells: HEK-293T, transient; grown at 28° C. for 24 hrs
Description: as §1

ΔF508-CFTR [2] = target: T1, ΔF508-CFTR; experiment: Macroscopic currents in excised patches from temperature-corrected HEK-293T cells expressing ΔF508-CFTR; assay type: biochemical; details: high PKA 110 U/ml without PKI
Description: as §1

AR-S660A-CFTR = target: T2, AR-S660A-CFTR (Homo sapiens, UniProt P13569, DEL708-835/S660A); experiment: Macroscopic currents in excised HEK-293T patches, R domain deletion mutant, no PKA; assay type: biochemical; details: 50 μM
T2 construct: expressed in transfected cells; host or cells: HEK-293T, transient
Description: Cell culture DNA constructs and transfections. Baby hamster kidney (BHK) cells stably expressing wild type human CFTR (BHK-CFTR) were provided by J. Hanrahan (McGill University). BHK-CFTR cells were cultured in Dulbecco's modified Eagle's medium (DMEM (Mediatech)) supplemented with 5% fetal bovine serum (FBS) and 1 mM penicillin-streptomycin. The growth media for the BHK-CFTR cells also contained 0.5 mM methotrexate to maintain selection for CFTR-expressing cells (22). HEK-293T cells were transiently transfected with wild-type or mutant CFTR cDNA using the Lipofectamine transfection kit following manufacturer's recommendations (Invitrogen, Corp). HEK-293T cells were cultured in DMEM. All cells were grown on plastic coverslips for patch clamp recording and were used 2-3 days post-seeding. Electrophysiology and data analysis. Macroscopic and multi-channel currents were recorded in the excised, inside-out configuration. Patch pipettes were pulled from Corning 8161 glass to tip resistances of […] (macroscopic recordings) or 8-10 mOhm (micropatch studies). CFTR channels were activated following patch excision by exposure of the cytoplasmic face of the patch to catalytic subunit of protein kinase A (PKA; 110 U/ml; Promega) and Mg-ATP (1.5 mM). CFTR currents were recorded in symmetrical solution containing (in mM): 140 N-methyl-D-glucaniine-Cl, 3 MgCl2, 1 EGTA and 10 TES. […]

R347D-CFTR = target: T3, R347D-CFTR (Homo sapiens, UniProt P13569, R347D); experiment: Macroscopic currents in excised patches from HEK-293T cells transiently transfected with R347D-CFTR; assay type: biochemical
T3 construct: expressed in transfected cells; host or cells: HEK-293T, transient
Description: HEK-293T cells were transiently transfected with wild-type or mutant CFTR cDNA using the Lipofectamine transfection kit following manufacturer's recommendations (Invitrogen, Corp). HEK-293T cells were cultured in DMEM. All cells were grown on plastic coverslips for patch clamp recording and were used 2-3 days post-seeding. […] Macroscopic and multi-channel currents were recorded in the excised, inside-out configuration. Patch pipettes were pulled from Corning 8161 glass to tip resistances of 1.5-3.0 mOhm (macroscopic recordings) or 8-10 mOhm (micropatch studies). CFTR channels were activated following patch excision by exposure of the cytoplasmic face of the patch to catalytic subunit of protein kinase A (PKA; 110 U/ml; Promega) and Mg-ATP (1.5 mM). CFTR currents were recorded in symmetrical solution containing (in mM): 140 N-methyl-D-glucaniine-Cl, 3 MgCl2, 1 EGTA and 10 TES. The pH was adjusted to 7.3. Macroscopic currents were evoked using a ramp protocol from +80 to −80 mV with a 10 sec time period. Patches were held at −80 mV or +80 mV for micropatch (multichannel) recordings. All patch clamp experiments were performed at 21-23° C. Signals from macroscopic and single channel recording were filtered at 20 and 200 Hz, respectively. Data acquisition and analysis were performed using pCLAMP8 and pCLAMP9 software (Axon Instruments). […]

G551D-CFTR = target: T4, G551D-CFTR (Homo sapiens, UniProt P13569, G551D); experiment: Macroscopic currents in excised patches from HEK-293T cells expressing G551D-CFTR; assay type: biochemical
T4 construct: expressed in transfected cells; host or cells: HEK-293T, transient
Description: as §1, with “Ussing Chamber Experiments-CFBE41o epithelial cells stably transfected with ΔF508-CFTR or transiently transfected with wild-type CFTR were cultured as electrically resistive monolayers and assayed in Ussing chambers as described (16). ΔF508-CFTR-expressing monolayers were grown at 27° C. for 2-3 days to enhance the surface expression of this temperature-sensitive mutant. A serosal-to-mucosal Cl^− gradient (120 to 1.2 mM) was imposed, followed by amiloride addition (100 μM) to block Na^+ currents. Compounds were added to both chambers at the indicated concentrations. A 3-mV voltage pulse was imposed every 100 s to monitor transepithelial resistance.” left out

AF508-CFTR = details: tissue culture cells and mice; reported by Egan et al. (12); cited from earlier work

wild-type CFTR, sequence (P13569 whole entry): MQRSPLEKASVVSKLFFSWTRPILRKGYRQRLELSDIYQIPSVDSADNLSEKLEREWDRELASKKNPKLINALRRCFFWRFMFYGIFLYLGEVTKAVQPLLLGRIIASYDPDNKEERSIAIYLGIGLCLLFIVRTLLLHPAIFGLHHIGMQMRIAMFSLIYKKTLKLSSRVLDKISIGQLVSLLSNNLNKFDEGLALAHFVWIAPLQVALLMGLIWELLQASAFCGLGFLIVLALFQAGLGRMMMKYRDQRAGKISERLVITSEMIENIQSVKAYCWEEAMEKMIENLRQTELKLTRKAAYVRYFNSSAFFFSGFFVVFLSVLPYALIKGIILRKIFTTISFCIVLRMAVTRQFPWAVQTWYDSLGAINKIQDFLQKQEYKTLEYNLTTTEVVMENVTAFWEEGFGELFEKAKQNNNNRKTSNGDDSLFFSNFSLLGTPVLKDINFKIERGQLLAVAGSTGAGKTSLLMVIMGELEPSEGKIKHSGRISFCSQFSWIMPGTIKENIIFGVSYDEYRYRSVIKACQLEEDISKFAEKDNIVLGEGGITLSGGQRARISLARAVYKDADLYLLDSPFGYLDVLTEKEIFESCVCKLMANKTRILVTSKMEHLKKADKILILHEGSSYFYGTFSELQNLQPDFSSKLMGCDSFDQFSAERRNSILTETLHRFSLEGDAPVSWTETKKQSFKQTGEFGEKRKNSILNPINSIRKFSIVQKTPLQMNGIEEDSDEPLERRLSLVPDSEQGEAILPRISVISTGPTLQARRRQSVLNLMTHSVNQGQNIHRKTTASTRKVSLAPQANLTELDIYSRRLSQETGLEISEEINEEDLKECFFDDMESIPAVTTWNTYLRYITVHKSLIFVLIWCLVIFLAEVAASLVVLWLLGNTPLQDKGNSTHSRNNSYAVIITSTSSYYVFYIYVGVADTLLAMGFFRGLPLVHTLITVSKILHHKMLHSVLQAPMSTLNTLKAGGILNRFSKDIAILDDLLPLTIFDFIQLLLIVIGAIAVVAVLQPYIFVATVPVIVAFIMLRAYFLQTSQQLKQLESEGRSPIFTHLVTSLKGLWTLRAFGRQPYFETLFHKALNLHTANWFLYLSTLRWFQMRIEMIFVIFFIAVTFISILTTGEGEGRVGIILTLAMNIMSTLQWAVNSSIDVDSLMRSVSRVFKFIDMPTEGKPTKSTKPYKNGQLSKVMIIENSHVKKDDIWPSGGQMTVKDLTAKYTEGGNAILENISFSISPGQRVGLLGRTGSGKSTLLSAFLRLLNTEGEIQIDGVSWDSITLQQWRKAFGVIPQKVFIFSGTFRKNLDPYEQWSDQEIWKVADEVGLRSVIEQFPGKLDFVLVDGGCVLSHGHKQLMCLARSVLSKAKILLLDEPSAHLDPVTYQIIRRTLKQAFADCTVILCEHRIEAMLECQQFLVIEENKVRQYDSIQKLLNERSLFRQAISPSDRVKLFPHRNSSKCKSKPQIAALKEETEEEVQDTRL
T1 sequence (P13569 with tags, fused parts or gaps DEL508-508): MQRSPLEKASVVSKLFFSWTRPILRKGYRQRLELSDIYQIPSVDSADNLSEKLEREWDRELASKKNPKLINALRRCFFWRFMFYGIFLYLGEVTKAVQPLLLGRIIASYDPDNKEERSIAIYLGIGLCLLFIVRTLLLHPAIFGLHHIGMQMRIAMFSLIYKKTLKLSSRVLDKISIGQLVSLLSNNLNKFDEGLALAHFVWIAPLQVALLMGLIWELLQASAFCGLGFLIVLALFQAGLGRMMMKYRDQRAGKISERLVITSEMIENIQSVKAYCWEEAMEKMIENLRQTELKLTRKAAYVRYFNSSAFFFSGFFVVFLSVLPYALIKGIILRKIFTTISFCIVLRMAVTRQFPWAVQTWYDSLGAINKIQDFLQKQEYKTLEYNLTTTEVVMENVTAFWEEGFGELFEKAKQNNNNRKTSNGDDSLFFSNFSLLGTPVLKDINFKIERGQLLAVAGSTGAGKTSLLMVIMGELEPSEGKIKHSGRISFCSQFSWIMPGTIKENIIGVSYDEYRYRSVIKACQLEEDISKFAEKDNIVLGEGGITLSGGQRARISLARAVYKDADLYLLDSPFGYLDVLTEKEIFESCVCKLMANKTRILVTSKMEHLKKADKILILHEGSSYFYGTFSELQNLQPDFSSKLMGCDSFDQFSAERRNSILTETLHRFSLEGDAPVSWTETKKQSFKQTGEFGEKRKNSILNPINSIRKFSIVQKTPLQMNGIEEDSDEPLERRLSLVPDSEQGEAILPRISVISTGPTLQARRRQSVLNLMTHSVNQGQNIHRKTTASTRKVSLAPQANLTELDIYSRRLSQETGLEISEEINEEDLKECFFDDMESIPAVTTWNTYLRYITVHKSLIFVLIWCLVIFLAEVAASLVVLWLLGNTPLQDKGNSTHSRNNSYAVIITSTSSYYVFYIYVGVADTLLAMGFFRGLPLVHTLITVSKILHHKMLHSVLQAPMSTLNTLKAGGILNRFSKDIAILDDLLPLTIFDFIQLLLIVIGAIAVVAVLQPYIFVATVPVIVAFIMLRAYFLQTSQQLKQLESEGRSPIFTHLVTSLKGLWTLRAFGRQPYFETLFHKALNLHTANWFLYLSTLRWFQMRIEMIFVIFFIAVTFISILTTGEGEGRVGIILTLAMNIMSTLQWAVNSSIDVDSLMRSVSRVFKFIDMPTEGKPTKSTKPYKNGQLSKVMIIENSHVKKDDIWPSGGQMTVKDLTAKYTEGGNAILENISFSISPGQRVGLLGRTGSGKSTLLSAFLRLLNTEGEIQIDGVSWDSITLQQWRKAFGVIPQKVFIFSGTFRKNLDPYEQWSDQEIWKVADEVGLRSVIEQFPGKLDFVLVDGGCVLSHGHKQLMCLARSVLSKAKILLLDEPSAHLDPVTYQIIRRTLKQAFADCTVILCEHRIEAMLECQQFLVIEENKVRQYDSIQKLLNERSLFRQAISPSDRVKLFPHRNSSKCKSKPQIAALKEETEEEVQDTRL
T3 sequence (P13569 whole entry R347D): as the sequence (P13569 whole entry) above, with R347D counted along it
T4 sequence (P13569 whole entry G551D): as the sequence (P13569 whole entry) above, with G551D counted along it
T2 sequence (P13569 with tags, fused parts or gaps S660A/DEL708-835): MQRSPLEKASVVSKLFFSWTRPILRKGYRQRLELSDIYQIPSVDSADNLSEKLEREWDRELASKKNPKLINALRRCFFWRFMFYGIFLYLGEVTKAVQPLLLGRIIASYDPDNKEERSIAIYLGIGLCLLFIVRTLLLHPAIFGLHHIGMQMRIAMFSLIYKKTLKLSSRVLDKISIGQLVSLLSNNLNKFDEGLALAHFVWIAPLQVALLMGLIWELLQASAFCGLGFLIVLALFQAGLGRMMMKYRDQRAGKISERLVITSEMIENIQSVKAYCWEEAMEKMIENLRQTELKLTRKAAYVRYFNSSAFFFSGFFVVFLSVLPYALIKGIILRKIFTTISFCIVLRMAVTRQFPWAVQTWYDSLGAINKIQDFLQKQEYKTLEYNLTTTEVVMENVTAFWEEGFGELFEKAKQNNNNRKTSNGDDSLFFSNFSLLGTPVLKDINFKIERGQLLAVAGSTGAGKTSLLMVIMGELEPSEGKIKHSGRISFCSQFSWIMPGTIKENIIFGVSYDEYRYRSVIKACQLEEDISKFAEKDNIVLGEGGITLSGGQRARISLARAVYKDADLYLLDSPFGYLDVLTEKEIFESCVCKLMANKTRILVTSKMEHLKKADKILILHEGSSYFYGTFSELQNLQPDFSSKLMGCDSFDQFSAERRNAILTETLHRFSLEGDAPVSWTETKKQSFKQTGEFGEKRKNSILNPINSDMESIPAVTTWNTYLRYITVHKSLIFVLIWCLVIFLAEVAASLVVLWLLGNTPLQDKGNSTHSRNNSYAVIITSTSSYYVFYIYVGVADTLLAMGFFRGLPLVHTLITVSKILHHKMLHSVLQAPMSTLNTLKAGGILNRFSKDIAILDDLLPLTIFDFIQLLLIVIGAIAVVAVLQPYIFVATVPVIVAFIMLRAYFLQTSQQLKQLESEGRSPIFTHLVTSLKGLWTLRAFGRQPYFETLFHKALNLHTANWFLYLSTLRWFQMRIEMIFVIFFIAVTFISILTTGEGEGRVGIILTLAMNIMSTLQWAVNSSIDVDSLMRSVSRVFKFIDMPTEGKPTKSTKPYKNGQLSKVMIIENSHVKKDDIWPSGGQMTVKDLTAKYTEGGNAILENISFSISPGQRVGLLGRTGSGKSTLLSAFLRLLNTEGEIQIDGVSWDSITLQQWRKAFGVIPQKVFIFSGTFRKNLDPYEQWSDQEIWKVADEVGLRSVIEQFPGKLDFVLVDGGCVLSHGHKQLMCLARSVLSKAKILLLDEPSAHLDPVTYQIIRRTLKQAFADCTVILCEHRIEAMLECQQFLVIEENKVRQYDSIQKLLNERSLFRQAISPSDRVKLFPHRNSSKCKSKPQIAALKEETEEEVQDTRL

effect on CFTR channel activity (wild-type CFTR; 100 μM, data not shown): weak effect
Structure (SMILES): NS(=O)(=O)c1cc([N+](=O)[O-])ccc1NCCCc1ccccc1 [NPPB-sulf]

increased CFTR currents, thiolated channels (wild-type CFTR; 0.5 mM): neither
Structure (SMILES): O=C(O)c1ccccc1Nc1ccccc1 [DPC, reference compound]

effect on ΔF508-CFTR macroscopic currents (ΔF508-CFTR [2]; 100 μM): dramatically stimulated
effect on currents in the absence of PKA (AR-S660A-CFTR): markedly stimulate
effect on currents of moderately phosphorylated R347D-CFTR channels (R347D-CFTR; low doses, high PKA followed by PKI): stimulates currents in both directions
effect on G551D-CFTR activity (G551D-CFTR; 200-400 μM): markedly stimulated
effect on currents of moderately phosphorylated wild-type channels (wild-type CFTR; 5-300 μM, high PKA followed by PKI, seven experiments): voltage-dependent block at all doses
effect on currents of highly phosphorylated CFTR channels (wild-type CFTR; continuous high PKA 110 U/ml without PKI): Only voltage-dependent block
Structure (SMILES): O=C(O)c1cc([N+](=O)[O-])ccc1NCCCc1ccccc1 [NPPB, 5-nitro-2-(3-phenylpropyl-amino)-benzoic acid, reference compound]
stimulation of R347D-CFTR currents at depolarizing potentials compared with wild type (R347D-CFTR; all levels of phosphorylation): to a greater extent than for wild type CFTR
current induced at depolarizing potential in patches excised from CFTR-minus cells (CFTR-minus cells): absent
effect on currents across a patch from untransfected HEK-293T cells (CFTR-minus cells; untransfected HEK-293T): neither
concentration dependence of G551D-CFTR activation compared to the wild type channel (G551D-CFTR; NPPB titration, wild type activated with low PKA): appreciable shift toward higher concentrations
effect on macroscopic current of thiolated (glutathionylated) CFTR channels (wild-type CFTR; 200 μM, high PKA 110 U/ml, 1.5 mM MgATP, PKI, diamide/GSH 20 μM): a large increase in current at depolarizing voltages
effect on currents of poorly phosphorylated, not thiolated CFTR channels (wild-type CFTR; 30-230 μM, low PKA 2 U/ml followed by PKI): stimulated CFTR currents at depolarizing potentials
effect on currents of poorly phosphorylated CFTR channels at higher concentrations (wild-type CFTR; higher concentrations of NPPB, low PKA then PKI): block was observed at all recording potentials

effect on ΔF508-CFTR macroscopic currents (ΔF508-CFTR [2]; 10 μM): dramatically stimulated
time course and reversibility of the stimulation of CFTR current (wild-type CFTR): transient
voltage dependence of the stimulation of CFTR current (wild-type CFTR): voltage-independent
Structure (SMILES): COc1cc(/C=C/C(=O)CC(=O)/C=C/c2ccc(O)c(OC)c2)ccc1O [curcumin]
biosynthetic maturation and functional correction of the ΔF508-CFTR mutant (AF508-CFTR): promotes the biosynthetic maturation and functional correction
effect on moderately phosphorylated CFTR channels (wild-type CFTR; 0.5-40.5 μM, six experiments): stimulates moderately phosphorylated CFTR channels

The remaining lines, values behind:

Structure (SMILES): COc1ccc(Cl)cc1C(=O)NCCc1ccc(S(=O)(=O)NC(=O)NC2CCCCC2)cc1 [glibenclamide]
current induced at depolarizing potential in patches excised from CFTR-minus cells (CFTR-minus cells): absent

Structure (SMILES): NC(CCc1ccccc1)C(=O)O (stereo not drawn) [APB, reference compound]
stimulation of thiolated CFTR channels (wild-type CFTR; 400 μM, same conditions as FIG. 1A): fails to stimulate

Structure (SMILES): O=c1c(-c2ccc(O)cc2)coc2cc(O)cc(O)c12 [genistein, reference compound]
potentiation of the forskolin effect on ΔF508-CFTR transepithelial currents (ΔF508-CFTR [1]): failed to potentiate the forskolin response

Structure (SMILES): N#CS [SCN^−, reference compound]
increased CFTR currents, thiolated channels (wild-type CFTR; 10 mM): neither
